Test systems include 786-0 renal; A498 renal; COLO 205 colon; LOX IMVI melanoma; MCF7 breast; NCI-H460 lung; RPMI-8226 leukemia; SF-539 CNS; SNB-75 CNS; UACC-257 melanoma.
What all share (assay): NCI tumour cell line growth inhibition, 48 h

“And” between values parts separate entries of the source, which are not always exact repeats. Equal values may be shown once.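 Values below derive from 48-hour exposures of cells grown in 96-well plates, with endpoints linearly interpolated between the two concentrations bracketing the appropriate inhibition level. The concentration for 50% growth inhibition is given as GI50. TGI is the concentration that stops growth completely.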 Where a SMILES comes first, the peptide text is derived from it. [ ]: non-standard residue; d: D form. The star is where a group is joined. Bn2Val = CC(C)[C@@H](C(=O)*)N(Cc1ccccc1)Cc1ccccc1; NH(3,4-diMeO-benzyl) = COc1ccc(CN*)cc1OC; NMeV = CN[C@H](C(=O)O)C(C)C; dNMeA = CN[C@H](C)C(=O)O Where only a bound is given, the exact number is not on record here.

Turning to `O=C(O)Cc1c[nH]c2ccc(F)cc12`, the TGI with 786-0 renal, with A498 renal, with COLO 205 colon, with LOX IMVI melanoma, in the experiment on MCF7 breast and in the experiment with NCI-H460 lung was more than 100 µM each time. The TGI with RPMI-8226 leukemia, with SF-539 CNS, in the experiment on SNB-75 CNS and with UACC-257 melanoma was more than 100 µM throughout.

Consider `NS(=O)(=O)c1ccc(-n2nc(-c3ccc(Br)cc3)ccc2=O)cc1`, for which the GI50 with 786-0 renal, in the experiment with A498 renal, in the experiment with COLO 205 colon, with LOX IMVI melanoma, in the experiment on MCF7 breast and with NCI-H460 lung was more than 10 µM throughout. Also, the GI50 in the experiment on RPMI-8226 leukemia, in the experiment on SF-539 CNS, in the experiment on SNB-75 CNS and with UACC-257 melanoma was more than 10 µM in each case. The TGI with 786-0 renal, in the experiment on A498 renal, in the experiment with COLO 205 colon, with LOX IMVI melanoma, in the experiment on MCF7 breast and in the experiment with NCI-H460 lung was more than 10 µM throughout. Moreover, the TGI in the experiment with RPMI-8226 leukemia, in the experiment with SF-539 CNS, in the experiment on SNB-75 CNS and with UACC-257 melanoma was more than 10 µM throughout.

Turning to `O=C(Cc1ccc(/C=C/C(=O)c2ncc[nH]2)cc1)Nc1ccc(Cl)cc1`, the GI50 was 1.13 µM in the experiment with 786-0 renal; 5.48 µM in the experiment on A498 renal; 3.01 µM in the experiment with COLO 205 colon; 0.87 µM in the experiment on LOX IMVI melanoma; 0.741 µM with MCF7 breast; 3.43 µM in the experiment with NCI-H460 lung. Further, the GI50 with RPMI-8226 leukemia is 0.857 µM; with SF-539 CNS, 3.33 µM; in the experiment with SNB-75 CNS, 3.63 µM; with UACC-257 melanoma it was 7.24 µM. Moreover, the TGI was 4.77 µM in the experiment with 786-0 renal; 13 µM in the experiment on A498 renal; 7.42 µM with COLO 205 colon; 3.48 µM in the experiment with LOX IMVI melanoma; 4.73 µM with MCF7 breast; more than 25 µM in the experiment with NCI-H460 lung. The TGI with RPMI-8226 leukemia was 3.92 µM; in the experiment with SF-539 CNS, 7.03 µM; with SNB-75 CNS, more than 25 µM; in the experiment on UACC-257 melanoma it was 19 µM.

As to `O=C1c2ccccc2C(=O)c2c1ccc1[nH]c(CCl)nc21`, the GI50 is 2.91 µM with 786-0 renal; 1.27 µM with A498 renal; 2.54 µM with COLO 205 colon; 2.2 µM with LOX IMVI melanoma; 1.75 µM with MCF7 breast; 3.97 µM in the experiment with NCI-H460 lung. Besides, the GI50 is 1.83 µM with RPMI-8226 leukemia, 3.16 µM with SF-539 CNS, 1.56 µM with SNB-75 CNS and 4.23 µM with UACC-257 melanoma. For the same compound, the TGI in the experiment with 786-0 renal is 9.38 µM; in the experiment on A498 renal, 7.06 µM; with COLO 205 colon, 8.62 µM; in the experiment with LOX IMVI melanoma, 5.22 µM; in the experiment on MCF7 breast it was 4.2 µM; in the experiment with NCI-H460 lung it was 15.1 µM. Further, the TGI in the experiment with RPMI-8226 leukemia was 5.87 µM; in the experiment with SF-539 CNS, 11.6 µM; in the experiment on SNB-75 CNS it was 10.8 µM; in the experiment with UACC-257 melanoma, 15.1 µM.

For `Cc1c(N2C(=O)/C(=C\c3ccccc3O)N=C2c2ccccc2)c(=O)n(-c2ccccc2)n1C`, the GI50 was 29.9 µM with 786-0 renal; more than 100 µM in the experiment on A498 renal; more than 100 µM in the experiment with COLO 205 colon; 62.3 µM in the experiment on LOX IMVI melanoma; 3.83 µM with MCF7 breast; more than 100 µM in the experiment with NCI-H460 lung. Also, the GI50 is more than 100 µM in the experiment on RPMI-8226 leukemia, 33.5 µM in the experiment with SF-539 CNS, 15.7 µM in the experiment on SNB-75 CNS and more than 100 µM with UACC-257 melanoma. The TGI in the experiment with 786-0 renal, in the experiment with A498 renal, in the experiment with COLO 205 colon, in the experiment on LOX IMVI melanoma, in the experiment with MCF7 breast and in the experiment on NCI-H460 lung was more than 100 µM each time. The TGI with RPMI-8226 leukemia was more than 100 µM; with SF-539 CNS, more than 100 µM; in the experiment on SNB-75 CNS, 40.3 µM; in the experiment with UACC-257 melanoma it was more than 100 µM.

Regarding `CC1=C2[C@@H](CC1)[C@]1(C)O[C@@](C(C)C)(C[C@H]1OC(=O)[C@H](C)O)[C@H]2OC(=O)/C=C/c1ccccc1`, the GI50 with 786-0 renal is 3.26 µM; in the experiment with A498 renal it was 0.236 µM; in the experiment on COLO 205 colon, 16.9 µM; in the experiment with LOX IMVI melanoma it was 15.1 µM; in the experiment with MCF7 breast, 8.15 µM; with NCI-H460 lung, 14.8 µM. Also, the GI50 in the experiment on RPMI-8226 leukemia was 7.9 µM; in the experiment with SF-539 CNS, 15 µM; in the experiment on SNB-75 CNS, 19.2 µM; in the experiment on UACC-257 melanoma, 17 µM. The TGI in the experiment with 786-0 renal was found to be 25.4 µM; in the experiment with A498 renal, 0.702 µM; in the experiment on COLO 205 colon, 36.2 µM; in the experiment on LOX IMVI melanoma, 30.7 µM; in the experiment on MCF7 breast it was 23.5 µM; in the experiment on NCI-H460 lung, 36.7 µM. Besides, the TGI in the experiment with RPMI-8226 leukemia stood at 30.8 µM; with SF-539 CNS, 30.9 µM; with SNB-75 CNS it was 51.2 µM; in the experiment with UACC-257 melanoma, 34.1 µM.

As for `COc1ccc(CNC(=O)[C@@H](C)N(C)C(=O)[C@@H]2CCCN2C(=O)[C@H](C(C)C)N(C)C(=O)[C@@H](NC(=O)[C@H](C(C)C)N(Cc2ccccc2)Cc2ccccc2)C(C)C)cc1OC` (Bn2Val-V[NMeV]P[dNMeA]-{NH(3,4-diMeO-benzyl)}), the GI50 was 11.4 µM with 786-0 renal; 5.86 µM in the experiment on COLO 205 colon; 6.35 µM with LOX IMVI melanoma; 8.21 µM in the experiment on NCI-H460 lung; 5.23 µM in the experiment on SF-539 CNS; 3.54 µM with SNB-75 CNS. The GI50 in the experiment with UACC-257 melanoma is 10.2 µM. The TGI with 786-0 renal is 21.3 µM and 28.3 µM; in the experiment with A498 renal, 23.7 µM; in the experiment on COLO 205 colon, 19.8 µM and 35.9 µM; in the experiment with LOX IMVI melanoma, 15.4 µM and 26.2 µM; in the experiment with MCF7 breast, 25.3 µM; with NCI-H460 lung it was 50 µM and 37.9 µM. Further, the TGI with RPMI-8226 leukemia was 20 µM and 18.6 µM; in the experiment on SF-539 CNS, 16.6 µM and 17.8 µM; in the experiment on SNB-75 CNS it was 16.6 µM and 15.9 µM; in the experiment with UACC-257 melanoma, 21.8 µM and 23.5 µM.

For `CCCCCCCCCCCCOC1C(CNCC2OC3OC(C)(C)OC3C2NC(=O)Nc2ccc(C(=O)OCC)cc2)OC2OC(C)(C)OC21` (stereo unspecified), the GI50 with 786-0 renal was 3.29 µM; with A498 renal, 12.8 µM; in the experiment with COLO 205 colon it was 1.99 µM; in the experiment with LOX IMVI melanoma, 1.99 µM; in the experiment with MCF7 breast it was 1.35 µM; in the experiment on NCI-H460 lung it was 2 µM. Also, the GI50 in the experiment on RPMI-8226 leukemia was 2.13 µM; in the experiment with SF-539 CNS, 1.79 µM; in the experiment on SNB-75 CNS it was 5.52 µM; in the experiment with UACC-257 melanoma, 5.05 µM. In addition, the TGI stood at 11.5 µM in the experiment with 786-0 renal; 25.5 µM in the experiment with A498 renal; 3.76 µM in the experiment with COLO 205 colon; 3.92 µM in the experiment with LOX IMVI melanoma; 2.92 µM in the experiment on MCF7 breast; 3.87 µM in the experiment on NCI-H460 lung. Besides, the TGI in the experiment on RPMI-8226 leukemia came out at 4.53 µM; with SF-539 CNS, 3.52 µM; in the experiment on SNB-75 CNS it was 21.1 µM; in the experiment with UACC-257 melanoma, 16.2 µM.

As to `C[C@@H]1Cc2c([nH]c3ccccc23)[C@@H](c2c(F)cc(/C=C/C(=O)O)cc2F)N1CC(C)(C)F`, the GI50 in the experiment with 786-0 renal is 14.2 µM; in the experiment with A498 renal, 8.77 µM; with COLO 205 colon, 16.5 µM; in the experiment with LOX IMVI melanoma, 12.3 µM; in the experiment on NCI-H460 lung, 11.5 µM; with RPMI-8226 leukemia it was 8.1 µM. The GI50 in the experiment with SF-539 CNS is 14.5 µM; in the experiment on SNB-75 CNS, 12.9 µM; in the experiment with UACC-257 melanoma it was 21.7 µM. Moreover, the TGI with 786-0 renal stood at 28.1 µM; in the experiment with A498 renal, 23.7 µM; in the experiment with COLO 205 colon, 39.8 µM; in the experiment with LOX IMVI melanoma, 27.2 µM; with MCF7 breast it was 25.6 µM; with NCI-H460 lung it was 27.8 µM. Also, the TGI in the experiment with RPMI-8226 leukemia is 37.6 µM; with SF-539 CNS, 32.4 µM; in the experiment on SNB-75 CNS, 28.6 µM; in the experiment with UACC-257 melanoma, 49.7 µM.

As to `COc1ccccc1NC(=O)c1ccc(/C=C/C(=O)c2nccn2C)cc1`, the GI50 in the experiment with 786-0 renal was 0.542 µM; in the experiment on A498 renal it was 0.555 µM; with COLO 205 colon, 0.552 µM; with LOX IMVI melanoma, 0.278 µM; in the experiment with MCF7 breast, 0.404 µM; in the experiment with NCI-H460 lung it was 0.572 µM. Further, the GI50 was 0.429 µM in the experiment with RPMI-8226 leukemia, 0.495 µM with SF-539 CNS, 0.342 µM with SNB-75 CNS and 0.972 µM in the experiment on UACC-257 melanoma. In addition, the TGI is 1.34 µM in the experiment on 786-0 renal; 1.49 µM in the experiment on A498 renal; 1.29 µM in the experiment with COLO 205 colon; 0.605 µM with LOX IMVI melanoma; 0.977 µM in the experiment with MCF7 breast; 1.52 µM in the experiment with NCI-H460 lung. The TGI is 1.46 µM in the experiment on RPMI-8226 leukemia, 1.07 µM with SF-539 CNS, 1.09 µM with SNB-75 CNS and 10.1 µM with UACC-257 melanoma.
